Data reported in patent publication US5919934A, “Compounds, compositions, and methods for cancer imaging and therapy” (The George Washington University, priority 1997, dated 1999).
Read-outs that look alike come from different tables or passages of the source.

Legend:
sigma receptors [1] = format: binding, human; conditions: T47D cells; for IC50: 37° C., 1 hr, against [Tc-99m]EN6, read-out: IC50 for inhibition of binding of [Tc-99m]EN6
Procedure: T47D human ductal breast carcinoma cells were purchased from ATCC, Rockville, Md. and cultured in serum supplemented medium DMEM containing 10% heat inactivated fetal bovine serum (GIBCO) at 37° C. The cells were adherent and split weekly in a 1:20 ratio using trypsin/EDTA (GIBCO). The cells were then transferred to 24 well plates and allowed to be adherent and confluent (about 0.5 million cells) or the cells were grown in T75 cell culture flasks and were detached when they were confluent using trypsin/EDTA (0.025%) or scraped with a cell scraper in DMEM.
Competition binding studies in human ductal breast cancer cells (T47D) were performed as follows. T47D cells were cultured in serum supplemented medium (RPMI-1640) containing 10% heat inactivated fetal bovine serum (GIBCO) at 37° C. The cells were adherent and split weekly in a 1:20 ratio using trypsin/EDTA (GIBCO). The cells were scraped using a cell scraper from T75 culture flasks and centrifuged in a Sorvall 6000B centrifuge at a speed of 4000 rpm. The growth medium was removed and the cell pellet was resuspended in […] serum free media.
The affinity of compounds for sites labeled by [Tc-99m]EN6 in human breast cancer cells was determined by heterologous in-vitro competitive binding assays in whole cells. The following method was used: A small aliquot of the cell suspension (100 μL) was incubated with [Tc-99m]EN6 and varying concentrations to (10^-4 to 10^-12 M) of arylethylenediamines keeping a total volume 1.0 mL constant. The cells were incubated at 37° C. for 1 hr and subsequently filtered through a Brandel Cell harvester (Brandel, Gaithersburg, Md.) and washed with de-ionized cold water. The radioactivity associated with the cells on filters was counted on a Beckman (DP 5500) Gamma Counter.
The data was analyzed with the iterative nonlinear least square curve fitting program GraphPAD Inplot (Graph PAD Software, San Diego, Calif.). The Cheng-Prussoff equation was then used to convert IC50 values to apparent K1 values.

sigma-2 sites = target: T1, sigma-2 sites (Rattus norvegicus, UniProt Q5U3Y7); experiment: Sigma-2 binding in rat liver membrane preparation against [^3 H]DTG in the presence of dextrallorphan
T1 construct: sigma-2 sites in rat liver membrane preparation; from tissue; host or cells: rat liver membranes
T1 sequence (Q5U3Y7 1-176): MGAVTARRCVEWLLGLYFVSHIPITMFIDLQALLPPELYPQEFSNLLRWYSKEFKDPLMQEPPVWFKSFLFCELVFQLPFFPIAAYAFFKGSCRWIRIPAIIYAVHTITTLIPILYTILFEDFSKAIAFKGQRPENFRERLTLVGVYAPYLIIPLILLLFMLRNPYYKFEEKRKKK

[2] = system: sigma-1 and sigma-2 receptors; experiment: In-vivo blocking with BD1008 in Sprague-Dawley rats; conditions: 2 micromol BD1008 co-injected
Procedure: Animal biodistribution and blocking studies were performed in rats as follows. Sprague Dawley rats (200-250 g) were anesthetized with ketamine/xylazine and injected intravenously with ^99m Tc-EN6, XXIII, ([…]) in 0.2 ml saline containing up to 20% ethanol solution. At 0.5, 1, and 4 hr post-injection blood samples were drawn by cardiac puncture and the rats were sacrificed thereafter by cardiectomy while under ketamine/xylazine anesthesia. The organs of interest were then excised, blotted with tissue paper, weighed and the radioactivity counted. The % injected dose/organ was determined by comparison of the tissue radioactivity with suitably diluted, known quantity aliquots of the injected dose. […] The animals were sacrificed at 4 hr post-injection and the organs of interest were removed and handled as above.
S. B. Hellewell, et al., Rat liver and kidney contain high densities of sigma-1 and sigma-2 receptors: characterization by ligand binding and photoaffinity labeling, Eur. J. Pharmacol.--Mol. Pharmacol. Sect. 268:9-18 (1994), all of which are hereby incorporated by reference.

[3] = system: non-melanoma cells in the liver and lung; conditions: cited from earlier work
sigma receptors [4] = target: T2, sigma receptors (Homo sapiens, UniProt Q5BJF2); conditions: MCF-7 cells, Scatchard's analysis; cited from earlier work
T2 construct: MCF-7 breast tumor cells express sigma receptors; host or cells: MCF-7 cells

sigma-1 sites = target: T3, sigma-1 sites (Cavia porcellus, UniProt Q60492); experiment: Sigma-1 binding in guinea pig brain against [^3 H]-(+)-pentazocine
T3 construct: sigma-1 sites in guinea pig brain; from tissue; host or cells: guinea pig brain

sigma receptors [5] = conditions: human breast and melanoma tumor cells; cited from earlier work
sigma receptor = conditions: guinea pig brain; cited from earlier work

T3 sequence (Q60492 whole entry): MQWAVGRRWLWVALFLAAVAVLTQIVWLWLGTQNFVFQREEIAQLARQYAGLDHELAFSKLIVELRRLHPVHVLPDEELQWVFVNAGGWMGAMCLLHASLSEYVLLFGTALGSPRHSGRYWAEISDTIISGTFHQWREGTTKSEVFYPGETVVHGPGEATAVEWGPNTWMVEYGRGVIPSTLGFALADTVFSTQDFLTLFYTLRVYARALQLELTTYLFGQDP
T2 sequence (Q5BJF2 whole entry): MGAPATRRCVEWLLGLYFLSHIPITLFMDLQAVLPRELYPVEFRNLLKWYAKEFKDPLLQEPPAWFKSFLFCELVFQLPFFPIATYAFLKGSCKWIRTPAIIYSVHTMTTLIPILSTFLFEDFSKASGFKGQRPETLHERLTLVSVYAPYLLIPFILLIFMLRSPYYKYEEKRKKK

CN(CCc1ccc(Cl)c(Cl)c1)CCN1CCCC1 [BD1008]
inhibition of [Tc-99m]EN6 binding (sigma receptors [1]): dose-dependent inhibition of binding
IC50 (sigma receptors [1]): 0.047 ± 0.002 µM
Ki (sigma-2 sites; rat liver membrane, against [^3 H]DTG in the presence of dextrallorphan, read-out: Ki for sigma-2 sites): 0.0081 ± 0.0022 µM
inhibition of binding of ^99m Tc-complex in the kidneys ([2]; kidneys, 4 hr post-i.v. injection): about 60%
reduction of radioactivity in liver ([2]; liver, 4 hr post-injection): 34%
reduction of radioactivity in lungs ([2]; lungs, 4 hr post-injection): 48%

CCN(CC)CCNC(=O)c1ccc(I)cc1 [IDAB, N-(diethylaminoethyl)4-iodobenzamide]
uptake by non-melanoma cells [3]: taken up in high concentrations

O=C(NC1CCN(Cc2ccccc2)CC1)c1ccc([125I])cc1 [4-[^125 I]-4-(N-benzylpiperidin-4-yl)-4-iodobenzamide]
receptors per cell (sigma receptors [4]): approximately a million

CN(CCc1ccc(I)cc1)CCN1CCCCC1 [IPEMP]
inhibition of [Tc-99m]EN6 binding (sigma receptors [1]): dose-dependent inhibition of binding
IC50 (sigma receptors [1]): 0.059 ± 0.005 µM
Ki (sigma-1 sites): 0.00082 ± 0.00013 µM
Ki (sigma-2 sites): 0.0152 ± 0.00235 µM

CN(CCc1ccc([125I])cc1)CCN1CCCCC1 [4-[^125 I]PEMP, [^125 I]N-[2-(4-iodophenyl)ethyl]-N-methyl-2-(1-piperidinyl)ethylamine]
specific binding to the sigma receptors (sigma receptors [5]): very high specific binding
inhibition binding isotherms (sigma receptor): consistent with sigma receptor pharmacology
